In one test the target is Histamine H3 receptor (Homo sapiens, UniProt Q9Y5N1). Put plainly: GPCRScan assay: inhibition of H3. More on the design: radioligand conc. used [nm] 0.5 – 1.0, parental cells HEK Flp-In.
Test [1] addresses Bone morphogenetic protein receptor type-2 (Homo sapiens) (UniProt Q13873). The test can be described thus: BMPR2 SGC Tm panel (DSF). As to conditions: Compound concentration 20.0 uM.
The target of test [2] is Serine/threonine-protein kinase B-raf (Homo sapiens) (UniProt P15056). The test can be described thus: BRAF SGC Tm panel (DSF). The conditions noted are these: Compound concentration 20.0 uM.
The target of test [3] is Bromodomain-containing protein 4 (Homo sapiens) (UniProt O60885). The test can be described thus: BRD4 SGC Tm panel (DSF). As to conditions: Compound concentration 20.0 uM.
In test [4] the target is Death-associated protein kinase 1 (Homo sapiens) (UniProt P53355). Put plainly: DAPK1 SGC Tm panel (DSF). As to conditions: Compound concentration 20.0 uM.
The target in test [5] is Ephrin type-A receptor 4 (Homo sapiens) (UniProt P54764). The test can be described thus: EPHA4 SGC Tm panel (DSF). As to conditions: Compound concentration 20.0 uM.
For test [6], the target named is Ephrin type-B receptor 1 (Homo sapiens) (UniProt P54762). Put plainly: EPHB1 SGC Tm panel (DSF). As to conditions: Compound concentration 20.0 uM.
Test [7] concerns the target Ephrin type-B receptor 3 (Homo sapiens) (UniProt P54753). Put plainly: EPHB3 SGC Tm panel (DSF). The conditions noted are these: Compound concentration 20.0 uM.
Test [8] deals with Dual specificity mitogen-activated protein kinase kinase 4 (Homo sapiens) (UniProt P45985). The test can be described thus: MAP2K4 SGC Tm panel (DSF). The conditions noted are these: Compound concentration 20.0 uM.
Test [9] concerns the target Proto-oncogene tyrosine-protein kinase Src (Homo sapiens) (UniProt P12931). Put plainly: SRC SGC Tm panel (DSF). The conditions noted are these: Compound concentration 20.0 uM.
Test [10] has as its target Serine/threonine-protein kinase 17B (Homo sapiens) (UniProt O94768). The test can be described thus: STK17B SGC Tm panel (DSF). As to conditions: Compound concentration 20.0 uM.
In test [11] the target is Transcription intermediary factor 1-alpha (Homo sapiens) (UniProt O15164). The test can be described thus: TIF1 SGC Tm panel (DSF). As to conditions: Compound concentration 20.0 uM.
The target of test [12] is 5-hydroxytryptamine receptor 2C (Homo sapiens) (UniProt P28335). As to conditions: Compound concentration 10.0 uM.
The target of test [13] is 5-hydroxytryptamine receptor 5A (Homo sapiens) (UniProt P47898). The conditions noted are these: Compound concentration 10.0 uM.
Test [14] concerns the target D(2) dopamine receptor (Homo sapiens) (UniProt P14416). The conditions noted are these: Compound concentration 10.0 uM.
Test [15] has as its target D(1B) dopamine receptor (Homo sapiens) (UniProt P21918). As to conditions: Compound concentration 10.0 uM.
Test [16] concerns the target Alpha-1A adrenergic receptor (Homo sapiens) (UniProt P35348). The conditions noted are these: Compound concentration 10.0 uM.
In test [17] the target is Beta-1 adrenergic receptor (Homo sapiens) (UniProt P08588). As to conditions: Compound concentration 10.0 uM.
Test [18] deals with Alpha-1D adrenergic receptor (Homo sapiens) (UniProt P25100). As to conditions: Compound concentration 10.0 uM.
In another test the target is Myoneurin (Homo sapiens) (UniProt Q9NPC7). The conditions noted are these: SUD4, Compound concentration 1.0 uM.
For test [19], the target named is T1, Zinc finger and BTB domain-containing protein 11 (Homo sapiens) (UniProt O95625).
T1 sequence (whole entry): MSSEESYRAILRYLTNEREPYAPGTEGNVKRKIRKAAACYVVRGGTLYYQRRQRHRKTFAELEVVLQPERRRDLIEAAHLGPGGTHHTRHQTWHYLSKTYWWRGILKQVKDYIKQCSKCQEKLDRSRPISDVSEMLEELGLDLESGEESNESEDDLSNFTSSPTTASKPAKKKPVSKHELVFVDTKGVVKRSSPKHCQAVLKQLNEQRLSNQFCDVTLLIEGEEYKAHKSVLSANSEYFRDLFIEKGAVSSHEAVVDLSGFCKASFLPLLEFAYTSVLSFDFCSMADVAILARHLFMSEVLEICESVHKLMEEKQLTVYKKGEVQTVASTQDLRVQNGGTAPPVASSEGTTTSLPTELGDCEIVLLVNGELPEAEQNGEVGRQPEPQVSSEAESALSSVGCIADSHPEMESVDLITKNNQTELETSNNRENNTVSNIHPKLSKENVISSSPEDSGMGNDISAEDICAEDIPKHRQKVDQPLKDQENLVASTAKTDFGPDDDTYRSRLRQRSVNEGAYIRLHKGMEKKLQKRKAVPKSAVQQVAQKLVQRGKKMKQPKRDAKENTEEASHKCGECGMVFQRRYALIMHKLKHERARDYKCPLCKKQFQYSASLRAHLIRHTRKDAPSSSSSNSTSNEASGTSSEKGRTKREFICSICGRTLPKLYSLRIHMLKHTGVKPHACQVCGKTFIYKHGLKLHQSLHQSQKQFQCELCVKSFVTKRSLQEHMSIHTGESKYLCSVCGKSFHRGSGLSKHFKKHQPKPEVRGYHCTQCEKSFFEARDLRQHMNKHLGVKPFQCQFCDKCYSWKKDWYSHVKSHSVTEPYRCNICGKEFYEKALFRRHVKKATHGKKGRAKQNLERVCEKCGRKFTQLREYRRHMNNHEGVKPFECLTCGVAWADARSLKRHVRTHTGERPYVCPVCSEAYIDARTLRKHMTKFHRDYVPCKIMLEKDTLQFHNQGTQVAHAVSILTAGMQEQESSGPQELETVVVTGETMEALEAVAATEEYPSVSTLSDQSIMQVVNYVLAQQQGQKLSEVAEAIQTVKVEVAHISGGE
As to conditions: SUD4, Compound concentration 1.0 uM.

Test [20] has as its target T2, Zinc finger and BTB domain-containing protein 24 (Homo sapiens) (UniProt O43167).
T2 sequence (whole entry): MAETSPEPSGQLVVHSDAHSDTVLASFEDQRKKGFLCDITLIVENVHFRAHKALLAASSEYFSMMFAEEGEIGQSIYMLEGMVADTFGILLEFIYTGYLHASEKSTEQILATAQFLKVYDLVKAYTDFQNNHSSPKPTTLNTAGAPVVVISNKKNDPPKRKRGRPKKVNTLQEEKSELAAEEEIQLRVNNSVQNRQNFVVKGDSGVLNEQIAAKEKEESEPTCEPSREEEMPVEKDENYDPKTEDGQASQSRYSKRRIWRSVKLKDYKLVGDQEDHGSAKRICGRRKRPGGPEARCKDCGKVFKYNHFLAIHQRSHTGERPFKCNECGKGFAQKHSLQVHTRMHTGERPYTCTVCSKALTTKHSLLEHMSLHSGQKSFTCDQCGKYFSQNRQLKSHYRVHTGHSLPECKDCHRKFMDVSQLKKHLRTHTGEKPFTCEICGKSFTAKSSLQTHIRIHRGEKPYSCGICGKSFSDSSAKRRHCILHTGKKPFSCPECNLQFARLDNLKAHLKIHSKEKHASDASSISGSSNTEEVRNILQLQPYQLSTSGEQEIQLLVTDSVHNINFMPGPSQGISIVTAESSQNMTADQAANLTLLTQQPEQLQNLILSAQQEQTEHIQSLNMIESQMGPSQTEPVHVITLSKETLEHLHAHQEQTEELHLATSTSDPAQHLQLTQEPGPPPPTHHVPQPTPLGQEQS
As to conditions: SUD4, Compound concentration 1.0 uM.

These results are taken from ChEMBL document CHEMBL5058646 (2022).

Sequence of Histamine H3 receptor (Q9Y5N1 whole entry): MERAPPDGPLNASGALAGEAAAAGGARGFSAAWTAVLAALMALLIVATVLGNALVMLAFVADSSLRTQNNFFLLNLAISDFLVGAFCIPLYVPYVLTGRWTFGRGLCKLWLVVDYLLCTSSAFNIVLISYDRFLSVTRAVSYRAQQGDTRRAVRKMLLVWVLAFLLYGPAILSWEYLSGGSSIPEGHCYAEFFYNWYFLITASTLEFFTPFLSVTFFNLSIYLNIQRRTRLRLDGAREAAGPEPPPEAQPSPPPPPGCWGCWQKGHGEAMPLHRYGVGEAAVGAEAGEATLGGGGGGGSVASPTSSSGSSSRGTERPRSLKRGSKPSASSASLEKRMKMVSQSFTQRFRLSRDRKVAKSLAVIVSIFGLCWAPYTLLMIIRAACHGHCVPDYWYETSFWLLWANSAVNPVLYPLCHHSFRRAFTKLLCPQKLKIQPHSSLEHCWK
Sequence of Proto-oncogene tyrosine-protein kinase Src (Homo sapiens) (P12931 2-536 limits assumed): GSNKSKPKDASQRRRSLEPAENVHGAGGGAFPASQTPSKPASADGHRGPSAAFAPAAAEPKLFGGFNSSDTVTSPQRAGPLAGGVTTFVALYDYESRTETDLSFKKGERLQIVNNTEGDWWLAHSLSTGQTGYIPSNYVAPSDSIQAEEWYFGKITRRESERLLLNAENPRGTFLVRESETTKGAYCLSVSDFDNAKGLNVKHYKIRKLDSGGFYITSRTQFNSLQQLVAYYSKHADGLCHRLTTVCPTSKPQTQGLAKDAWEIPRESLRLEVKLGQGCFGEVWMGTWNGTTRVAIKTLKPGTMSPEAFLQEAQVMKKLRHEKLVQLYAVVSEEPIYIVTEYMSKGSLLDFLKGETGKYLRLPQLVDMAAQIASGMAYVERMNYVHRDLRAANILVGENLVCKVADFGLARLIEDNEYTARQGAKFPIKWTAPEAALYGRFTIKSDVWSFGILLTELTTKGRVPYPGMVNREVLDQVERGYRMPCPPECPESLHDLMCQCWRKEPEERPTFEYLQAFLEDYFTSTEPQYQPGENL
Sequence of Ephrin type-B receptor 3 (Homo sapiens) (P54753 whole entry): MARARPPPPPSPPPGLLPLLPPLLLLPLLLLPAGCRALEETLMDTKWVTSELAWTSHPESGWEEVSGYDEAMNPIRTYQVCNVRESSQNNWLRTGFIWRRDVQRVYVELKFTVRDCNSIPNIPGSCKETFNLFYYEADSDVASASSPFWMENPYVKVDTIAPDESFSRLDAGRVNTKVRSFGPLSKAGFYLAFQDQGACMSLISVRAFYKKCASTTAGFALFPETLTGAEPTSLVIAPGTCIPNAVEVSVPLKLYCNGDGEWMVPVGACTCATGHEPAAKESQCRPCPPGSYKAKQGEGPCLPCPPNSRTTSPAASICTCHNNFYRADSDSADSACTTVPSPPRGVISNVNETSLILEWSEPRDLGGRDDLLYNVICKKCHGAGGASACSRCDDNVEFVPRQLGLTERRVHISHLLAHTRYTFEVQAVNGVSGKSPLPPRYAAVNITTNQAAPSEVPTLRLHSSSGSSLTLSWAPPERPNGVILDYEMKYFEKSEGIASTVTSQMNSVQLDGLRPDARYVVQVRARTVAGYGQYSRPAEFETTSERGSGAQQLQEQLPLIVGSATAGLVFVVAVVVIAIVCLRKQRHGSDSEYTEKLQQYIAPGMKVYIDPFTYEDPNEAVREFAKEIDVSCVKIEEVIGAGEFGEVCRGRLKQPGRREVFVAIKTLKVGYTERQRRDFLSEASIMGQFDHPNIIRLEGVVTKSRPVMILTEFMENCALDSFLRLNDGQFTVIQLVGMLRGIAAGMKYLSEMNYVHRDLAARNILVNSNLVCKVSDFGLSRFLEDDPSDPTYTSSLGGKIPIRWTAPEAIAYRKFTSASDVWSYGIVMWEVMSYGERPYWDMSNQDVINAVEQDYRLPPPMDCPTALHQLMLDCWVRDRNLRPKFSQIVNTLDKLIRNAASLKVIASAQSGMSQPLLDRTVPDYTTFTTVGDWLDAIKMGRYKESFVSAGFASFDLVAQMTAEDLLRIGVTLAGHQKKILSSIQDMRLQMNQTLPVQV
Sequence of Death-associated protein kinase 1 (Homo sapiens) (P53355 whole entry, looked up): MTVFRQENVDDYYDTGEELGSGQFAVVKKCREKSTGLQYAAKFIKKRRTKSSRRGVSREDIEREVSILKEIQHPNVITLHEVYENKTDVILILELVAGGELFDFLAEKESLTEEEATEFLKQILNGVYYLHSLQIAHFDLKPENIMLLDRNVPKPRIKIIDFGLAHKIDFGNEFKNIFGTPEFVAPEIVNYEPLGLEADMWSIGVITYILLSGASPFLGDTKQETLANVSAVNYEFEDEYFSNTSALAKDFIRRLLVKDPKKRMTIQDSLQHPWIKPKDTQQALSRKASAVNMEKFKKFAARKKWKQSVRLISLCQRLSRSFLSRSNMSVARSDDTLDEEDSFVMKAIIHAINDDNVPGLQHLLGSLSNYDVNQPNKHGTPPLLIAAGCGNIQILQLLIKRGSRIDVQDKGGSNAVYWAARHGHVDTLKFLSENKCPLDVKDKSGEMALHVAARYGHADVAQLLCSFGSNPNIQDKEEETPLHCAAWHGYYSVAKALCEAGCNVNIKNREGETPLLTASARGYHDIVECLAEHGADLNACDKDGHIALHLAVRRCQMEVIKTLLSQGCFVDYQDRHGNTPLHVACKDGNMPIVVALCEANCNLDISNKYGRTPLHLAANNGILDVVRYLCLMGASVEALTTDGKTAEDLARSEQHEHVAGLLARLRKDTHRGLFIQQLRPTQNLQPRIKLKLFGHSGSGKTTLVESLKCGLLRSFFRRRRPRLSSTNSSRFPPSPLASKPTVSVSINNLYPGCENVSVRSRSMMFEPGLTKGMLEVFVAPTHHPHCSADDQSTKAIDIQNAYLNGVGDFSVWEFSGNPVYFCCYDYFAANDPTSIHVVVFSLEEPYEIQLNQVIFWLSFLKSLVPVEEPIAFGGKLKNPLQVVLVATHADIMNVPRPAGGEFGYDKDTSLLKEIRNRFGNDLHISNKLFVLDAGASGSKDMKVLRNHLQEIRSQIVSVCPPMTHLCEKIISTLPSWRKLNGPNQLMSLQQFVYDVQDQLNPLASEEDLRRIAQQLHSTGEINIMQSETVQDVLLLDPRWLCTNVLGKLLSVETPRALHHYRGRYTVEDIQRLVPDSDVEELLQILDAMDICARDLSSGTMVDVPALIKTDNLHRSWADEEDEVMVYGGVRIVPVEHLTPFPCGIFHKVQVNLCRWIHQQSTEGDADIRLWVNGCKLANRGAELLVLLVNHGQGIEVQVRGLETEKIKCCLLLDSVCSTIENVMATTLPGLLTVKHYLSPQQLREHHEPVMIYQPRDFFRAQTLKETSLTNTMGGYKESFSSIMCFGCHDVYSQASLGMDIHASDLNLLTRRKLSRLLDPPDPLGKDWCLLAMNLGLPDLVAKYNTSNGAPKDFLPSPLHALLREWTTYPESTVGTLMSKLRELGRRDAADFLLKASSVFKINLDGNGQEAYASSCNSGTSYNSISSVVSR
Sequence of Myoneurin (Homo sapiens) (Q9NPC7 whole entry, the tested form may be a part): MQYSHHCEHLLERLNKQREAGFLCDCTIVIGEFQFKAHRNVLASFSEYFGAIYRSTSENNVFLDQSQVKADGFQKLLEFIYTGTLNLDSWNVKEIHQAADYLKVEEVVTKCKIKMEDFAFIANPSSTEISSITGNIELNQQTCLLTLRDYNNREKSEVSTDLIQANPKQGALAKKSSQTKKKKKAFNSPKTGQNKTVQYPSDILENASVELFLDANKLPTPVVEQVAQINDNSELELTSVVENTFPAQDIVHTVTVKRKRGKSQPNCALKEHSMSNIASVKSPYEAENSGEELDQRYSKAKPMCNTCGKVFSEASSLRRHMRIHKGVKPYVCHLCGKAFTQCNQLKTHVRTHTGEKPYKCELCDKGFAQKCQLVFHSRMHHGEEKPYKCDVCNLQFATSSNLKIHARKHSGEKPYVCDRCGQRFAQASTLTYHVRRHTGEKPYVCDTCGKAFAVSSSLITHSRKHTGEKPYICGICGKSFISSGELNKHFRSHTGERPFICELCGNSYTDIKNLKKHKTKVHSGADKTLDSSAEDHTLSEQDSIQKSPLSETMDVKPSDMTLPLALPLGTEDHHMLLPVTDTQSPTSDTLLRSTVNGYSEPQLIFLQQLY
Sequence of Serine/threonine-protein kinase 17B (Homo sapiens) (O94768 whole entry): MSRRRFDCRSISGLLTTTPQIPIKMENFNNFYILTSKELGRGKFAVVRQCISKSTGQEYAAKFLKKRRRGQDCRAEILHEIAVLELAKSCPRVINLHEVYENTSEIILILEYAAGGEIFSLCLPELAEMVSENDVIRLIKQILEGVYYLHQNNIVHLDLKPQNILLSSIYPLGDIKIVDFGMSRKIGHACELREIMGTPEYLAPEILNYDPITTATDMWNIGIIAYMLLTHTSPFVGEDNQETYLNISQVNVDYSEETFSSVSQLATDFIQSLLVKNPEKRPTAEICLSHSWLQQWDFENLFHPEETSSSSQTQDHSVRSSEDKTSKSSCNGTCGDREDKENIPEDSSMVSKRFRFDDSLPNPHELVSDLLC
Sequence of D(1B) dopamine receptor (Homo sapiens) (P21918 whole entry): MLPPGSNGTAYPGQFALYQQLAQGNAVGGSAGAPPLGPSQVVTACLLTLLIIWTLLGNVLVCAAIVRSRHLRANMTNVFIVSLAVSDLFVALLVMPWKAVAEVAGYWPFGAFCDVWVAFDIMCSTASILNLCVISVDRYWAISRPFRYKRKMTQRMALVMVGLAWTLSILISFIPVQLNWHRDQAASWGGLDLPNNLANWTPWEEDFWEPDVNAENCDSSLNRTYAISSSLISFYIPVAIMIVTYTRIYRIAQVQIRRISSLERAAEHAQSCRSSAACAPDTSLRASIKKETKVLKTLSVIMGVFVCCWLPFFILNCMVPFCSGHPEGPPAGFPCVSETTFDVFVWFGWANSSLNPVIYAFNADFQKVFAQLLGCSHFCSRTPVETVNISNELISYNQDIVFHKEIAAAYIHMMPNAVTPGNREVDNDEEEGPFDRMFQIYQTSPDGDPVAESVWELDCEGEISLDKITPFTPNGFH

For the compound `C[C@@H]1CN(c2ncc(Cl)c(Nc3ccc4c(c3)n(CCC(C)(C)O)c(=O)n4C)n2)C[C@H](C)C1(F)F`, the Ki at Histamine H3 receptor (read-out: Ki) is 2.33 µM; at Histamine H3 receptor (read-out: pKi (converted)) it was 2.04 µM. Further, the Tm in [1] was 51 °C; in test [2], 39 °C; in [3] it was 44 °C; in test [4], 53 °C; in test [5] it was 54 °C; in test [6], 57 °C. Further, the Tm in test [7] is 52 °C; in test [8] it was 41 °C; in test [9], 53 °C; in test [10] it was 43 °C; in test [11], 36 °C. The inhibition in [12] was 16.1%; in [13], 13.2%; in test [14], 20.8%; in test [15], 26.2%; in [16] it was 7.7%; in test [17] it was -2.67%. Also, the inhibition in test [18] was 16%. Moreover, the LogFC on Myoneurin (Homo sapiens) was -0.135; in test [19], -0.0504; in [20], 0.0258.
